Test results from PubChem BioAssay AID2747 (The Scripps Research Institute Molecular Screening Center, 2010).
Calls of active or inactive are those of the source. No rule for the calls is given here.

Target: Luciferin 4-monooxygenase (Photinus pyralis) (UniProt P08659)
Test: native luciferase enzyme inhibition – biochemical, luminescence, dose response, artefact control for HSP90 inhibitor project, late-stage follow-up (AID 2747)
Details: purified firefly luciferase, counterscreen

Sequence of Luciferin 4-monooxygenase (Photinus pyralis) (P08659 whole entry, looked up): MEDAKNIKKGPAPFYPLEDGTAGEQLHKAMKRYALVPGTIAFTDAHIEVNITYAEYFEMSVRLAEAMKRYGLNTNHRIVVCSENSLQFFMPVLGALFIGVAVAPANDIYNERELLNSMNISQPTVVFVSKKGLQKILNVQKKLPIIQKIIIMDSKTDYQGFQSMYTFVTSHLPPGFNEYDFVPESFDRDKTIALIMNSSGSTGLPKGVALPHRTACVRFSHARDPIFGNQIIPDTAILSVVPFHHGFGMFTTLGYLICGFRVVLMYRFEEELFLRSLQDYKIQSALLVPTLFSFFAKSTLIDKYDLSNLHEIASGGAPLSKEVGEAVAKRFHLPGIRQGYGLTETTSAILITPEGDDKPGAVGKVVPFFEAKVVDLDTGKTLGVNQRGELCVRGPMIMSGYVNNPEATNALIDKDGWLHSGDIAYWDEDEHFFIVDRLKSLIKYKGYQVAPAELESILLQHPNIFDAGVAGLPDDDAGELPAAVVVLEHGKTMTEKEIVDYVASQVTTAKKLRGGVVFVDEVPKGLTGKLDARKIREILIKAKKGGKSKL

Row | IC50 | Compound
1 | > 60 µM (inactive) | CC(=O)Nc1ccccc1OCC(=O)c1cc(C)n(Cc2cccs2)c1C
2 | > 60 µM (inactive) | Cc1c(-c2nc(-c3ccc(C(C)(C)C)cc3)no2)n(C)oc1=O
3 | > 60 µM (inactive) | COC(=O)c1ccccc1OCCCOc1ccc(C)cc1OC
4 | > 60 µM (inactive) | Cc1cc(NO)nc(-c2ccc(Br)cc2)n1
5 | > 60 µM (inactive) | COc1cc(C=NNc2ccc(Cl)c(C(=O)O)c2)ccc1OC(=O)c1ccc(F)cc1
6 | > 60 µM (inactive) | COc1ccccc1NC(=O)c1coc(=O)c(Br)c1
7 | > 60 µM (inactive) | CCc1ccc(OCc2ccc(C(=O)OC)o2)cc1
8 | > 60 µM (inactive) | CCOC(=O)C1=C(c2ccc(OC)cc2)C(=O)c2ccccc2C1=O
9 | > 60 µM (inactive) | Cc1c(-c2nc(-c3ccc(C(F)(F)F)cc3)no2)n(C)oc1=O
10 | > 60 µM (inactive) | CCOC(=O)c1csc(NC(=O)c2cc3ccccc3o2)n1
